Measurements as given in paper PMC7926793, “Synthesis and Biological Evaluation of 1-(Diarylmethyl)-1H-1,2,4-triazoles and 1-(Diarylmethyl)-1H-imidazoles as a Novel Class of Anti-Mitotic Agent for Activity in Breast Cancer” (Pharmaceuticals, 2021).

Experiments:
[1] = system: PARP; test: Western blot in MCF-7 cells; type: cell-based, human; settings: MCF-7, 1 μM, vs vehicle
Protocol: (§1) MCF-7 cells were seeded at a density of 1 × 10^5 cells/flask (10 mL) in T25 flasks. After 48 h, whole cell lysates were prepared from untreated cells or cells treated with vehicle control (EtOH, 0.1% v/v) or selected compound 21l or 24 (1 μM). MCF-7 cells were harvested in Radioimmunoprecipitation assay buffer (RIPA) buffer supplemented with protease inhibitors (Roche Diagnostics), phosphatase inhibitor cocktail 2 (Sigma-Aldrich), and phosphatase inhibitor cocktail 3 (Sigma-Aldrich). Equal quantities of protein (as determined by a bicinchoninic acid assay (BCA assay) were resolved by SDS-PAGE (12%) followed by transfer to polyvinylidene fluoride PVDF membranes. Membranes were blocked in 5% bovine serum albumin/Tris-buffered saline with 0.1% Tween®20 Detergent (TBST) for 1 h. Membranes were incubated in the relevant primary antibodies at 4 °C overnight, washed with TBST, and incubated in horseradish peroxidase-conjugated secondary antibody for 1 h at rt and washed again. Western blot analysis was performed as described above using antibodies directed against Mcl-1 (1:1000) (Millipore), Bcl-2 [1:500] (Millipore), and PARP followed by incubation with a horseradish peroxidase-conjugated anti-mouse antibody (1:2000) (Promega, Madison, WI, USA). All blots were probed with anti-glyceraldehyde 3-phosphate dehydrogenase (GAPDH) antibody (1:5000) (Millipore) to confirm equal loading. Proteins were detected using enhanced chemiluminescent Western blot detection (Clarity Western ECL substrate) (Bio Rad) on the ChemiDoc MP System (Bio Rad). Experiments were performed on three independent occasions.

[2] = system: Bcl-2; test: Western blot in MCF-7 cells; type: cell-based, human; settings: MCF-7, 1 μM
Protocol: as §1

[3] = system: Mcl-1; test: Western blot in MCF-7 cells; type: cell-based, human; settings: MCF-7, 1 μM
Protocol: as §1

[4] = HPLC stability study in phosphate buffers; type: physicochemical
Protocol: Stability studies for compounds 21l and 24 were performed by analytical HPLC using a Symmetry® column (C18, […], 4.6 × 150 mm), a Waters 2487 Dual Wavelength Absorbance detector, a Waters 1525 binary HPLC pump, and a Waters 717 plus Autosampler (Waters Corporation, Milford, MA, USA). Samples were detected at λ 254 nm using acetonitrile (70%)/water (30%) as the mobile phase over 15 min and a flow rate of 1 mL/min. Stock solutions of the compounds are prepared using 10 mg of compounds 21l and 24 in 10 mL of mobile phase (1 mg/mL). Phosphate buffers at the desired pH values (4, 7.4, and 9) were prepared following the British Pharmacopoeia monograph 2020. Then, 30 μL of stock solution was diluted with 1 mL of appropriate buffer, shaken, and injected immediately. Samples were withdrawn and analysed at time intervals of t = 0 min, 5 min, 30 min, 60 min, and hourly for 24 h.

[5] = system: MCF-7 cells; test: cell cycle analysis, PI staining, flow cytometry; type: cell-based, human; settings: 1 μM
Protocol: The cells were collected by trypsinisation and centrifuged at 800× g for 15 min. Cells were washed twice with ice-cold phosphate-buffered saline (PBS) and fixed in ice-cold 70% ethanol overnight at −20 °C.

[6] = system: SK-MEL-2; test: NCI 60 cell line screen (Melanoma); type: cell-based, human; settings: for Growth percentage: SK-MEL-2, single dose 10 µM
[7] = system: UACC-62; test: NCI 60 cell line screen (Melanoma); type: cell-based, human; settings: for Growth percentage: UACC-62, single dose 10 µM
[8] = system: NCI-H552; test: NCI 60 cell line screen (Non-Small Cell Lung Cancer); type: cell-based, human; settings: for Growth percentage: NCI-H552, single dose 10 µM
[9] = system: UACC-257; test: NCI 60 cell line screen (Melanoma); type: cell-based, human; settings: for Growth percentage: UACC-257, single dose 10 µM
[10] = system: CAKI-1; test: NCI 60 cell line screen (Renal Cancer); type: cell-based, human; settings: for Growth percentage: CAKI-1, single dose 10 µM
[11] = system: LOX IMV1; test: NCI 60 cell line screen (Melanoma); type: cell-based, human; settings: for Growth percentage: LOX IMV1, single dose 10 µM
[12] = system: MCF-7; test: NCI 60 cell line screen (Breast Cancer); type: cell-based, human; settings: for Growth percentage: MCF-7, single dose 10 µM
[13] = system: CCRF-CEM; test: NCI 60 cell line screen (Leukemia); type: cell-based, human; settings: for Growth percentage: single dose 10 µM
[14] = system: NCI/ADR-RES; test: NCI 60 cell line screen (Ovarian Cancer); type: cell-based, human; settings: for Growth percentage: single dose 10 µM
[15] = system: MCF-10A non-tumorigenic human mammary epithelial cells; test: toxicity evaluation, alamarBlue assay; type: cell-based; settings: 10 μM, 24 h
[16] = system: NCI-H23; test: NCI 60 cell line screen (Non-Small Cell Lung Cancer); type: cell-based, human; settings: for Growth percentage: NCI-H23, single dose 10 µM
[17] = system: DU-145; test: NCI 60 cell line screen (Prostate cancer); type: cell-based, human; settings: for Growth percentage: DU-145, single dose 10 µM
[18] = system: SK-OV-3; test: NCI 60 cell line screen (Ovarian Cancer); type: cell-based, human; settings: for Growth percentage: SK-OV-3, single dose 10 µM
[19] = system: SN12C; test: NCI 60 cell line screen (Renal Cancer); type: cell-based, human; settings: for Growth percentage: single dose 10 µM
[20] = system: NCI-H332M; test: NCI 60 cell line screen (Non-Small Cell Lung Cancer); type: cell-based, human; settings: for Growth percentage: single dose 10 µM
[21] = system: RPMI-8226; test: NCI 60 cell line screen (Leukemia); type: cell-based, human; settings: for Growth percentage: RPMI-8226, single dose 10 µM
[22] = system: BT-549; test: NCI 60 cell line screen (Breast Cancer); type: cell-based, human; settings: for Growth percentage: BT-549, single dose 10 µM
[23] = system: M14; test: NCI 60 cell line screen (Melanoma); type: cell-based, human; settings: for Growth percentage: M14, single dose 10 µM
[24] = system: HCT-2998; test: NCI 60 cell line screen (Colon Cancer); type: cell-based, human; settings: for Growth percentage: HCT-2998, single dose 10 µM

SMILES | Growth percentage [6] [%] | Growth percentage [7] [%] | Growth percentage [8] [%] | Growth percentage [9] [%] | Growth percentage [10] [%] | Growth percentage [11] [%] | Growth percentage [12] [%] | Growth percentage [13] [%] | Growth percentage [14] [%] | Growth percentage [16] [%] | Growth percentage [17] [%] | Growth percentage [18] [%] | Growth percentage [19] [%] | Growth percentage [20] [%] | Growth percentage [21] [%] | Growth percentage [22] [%] | Growth percentage [23] [%] | Growth percentage [24] [%] | further results
COc1ccc(C(c2cc(OC)c(OC)c(OC)c2)n2nccn2)cc1O (stereo not shown) [compound 24] |  |  |  |  |  |  |  |  |  |  |  |  |  |  |  |  |  |  | expression of full-length PARP (116 kDa) [1]: significant reduction; expression level of Bcl-2 [2]: no change; expression level of Mcl-1 [3]: no change; compound remaining (HPLC) ([4]; pH 4, 24 h): 65%; compound remaining (HPLC) ([4]; pH 7.4, 24 h): 50%; compound remaining (HPLC) ([4]; pH 9, 24 h): 60%; cells in the G2/M phase ([5]; 24 h): 52%; cells in the G2/M phase ([5]; 48 h): 56%; cells in the G2/M phase ([5]; 72 h): 59%
COc1ccc(C(c2cc(OC)c(OC)c(OC)c2)n2cncn2)cc1O (stereo not shown) [19e, 5-((1H-1,2,4-Triazol-1-yl)(3,4,5-Trimethoxyphenyl)methyl)-2-Methoxyphenol] | 55.94 | 32.04 | 12.78 | 44.45 | 40.43 | 43.48 | 17.87 | 9.32 | 1.80 | 39.85 | 19.64 | 20.25 | 39.32 | 51.45 | 20.71 | 11.30 | -1.61 | 25.25 | GI50 ([6]; Homo sapiens, SK-MEL-2, NCI 5 dose assay): 0.361 µM; GI50 ([7]; Homo sapiens, UACC-62, NCI 5 dose assay): 0.55 µM; GI50 ([8]; Homo sapiens, 60 cell, NCI-H552, NCI 5 dose assay): 0.395 µM; GI50 ([9]; Homo sapiens, UACC-257, NCI 5 dose assay): > 100 µM; GI50 ([10]; Homo sapiens, CAKI-1, NCI 5 dose assay): 0.567 µM; GI50 ([11]; Homo sapiens, LOX IMV1, NCI 5 dose assay): 0.523 µM; GI50 ([12]; Homo sapiens, MCF7, MCF-7, NCI 5 dose assay): 0.347 µM; GI50 ([13]; Homo sapiens, NCI 5 dose assay): 0.402 µM; GI50 ([14]; Homo sapiens, NCI 5 dose assay): 1.18 µM; cell death [15]: approximately 50%; GI50 ([16]; Homo sapiens, NCI-H23, NCI 5 dose assay): 0.977 µM; GI50 ([17]; Homo sapiens, DU-145, NCI 5 dose assay): 0.53 µM; GI50 ([18]; Homo sapiens, SK-OV-3, NCI 5 dose assay): 0.402 µM; GI50 ([19]; Homo sapiens, NCI 5 dose assay): 0.853 µM; GI50 ([20]; Homo sapiens, NCI 5 dose assay): 0.696 µM; GI50 ([21]; Homo sapiens, RPMI-8226, NCI 5 dose assay): 0.452 µM; GI50 ([22]; Homo sapiens, BT-549, NCI 5 dose assay): 0.618 µM; GI50 ([23]; Homo sapiens, M14, NCI 5 dose assay): 0.374 µM; GI50 ([24]; Homo sapiens, 60 cell, HCT-2998, NCI 5 dose assay): 1.35 µM
COc1ccc(C(c2cc(OC)c(OC)c(OC)c2)N2CCN(Cc3ccccc3)CC2)cc1 (stereo not shown) [27d] | 27.38 | 49.44 | 52.38 | 84.23 | 66.73 | 67.02 | 47.67 | 68.76 | 61.59 | 88.53 | 102.00 | 66.24 | 88.36 | 65.07 | 84.15 | 92.41 | 52.83 | 91.92 | 
